Results on eleven compounds are retold here after patent US11981658B2, “Substituted aminopyridine compounds as EGFR inhibitors” (YUHAN CORPORATION, priority 2021, dated 2024).

For experiment [1], the target named is EGFR Del19/T790M/C797S (Homo sapiens, UniProt P00533, C797S/DEL746-750/T790M). Description: Biochemical EGFR kinase inhibition assay (Lance Ultra TR-FRET), triple mutant del19/T790M/C797S. The gist of the method:
(§1)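 Enzyme reactions lasted 1 hour at room temperature with test compounds between 0.003 and 10 μM, followed by 10 mM EDTA quench.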
(TR-FRET usually uses a lanthanide donor and a delayed reading to cut background.)

Experiment [2] deals with EGFR L858R/T790M/C797S (Homo sapiens, UniProt P00533, C797S/L858R/T790M). The experiment is described as follows: Biochemical EGFR kinase inhibition assay (Lance Ultra TR-FRET), triple mutant L858R/T790M/C797S. The procedure, abridged: as §1
Experiment [3] deals with EGFR Del19/C797S (Homo sapiens, UniProt P00533, C797S/DEL746-750). Description: Biochemical EGFR kinase inhibition assay (Lance Ultra TR-FRET), double mutant del19/C797S. The procedure, abridged: as §1
For experiment [4], the target named is EGFR L858R/C797S (Homo sapiens, UniProt P00533, C797S/L858R). The experiment is described as follows: Biochemical EGFR kinase inhibition assay (Lance Ultra TR-FRET), double mutant L858R/C797S. The gist of the method:
as §1

The target in experiment [5] is EGFR wildtype (WT) (Homo sapiens, UniProt P00533). The experiment is described as follows: Biochemical EGFR kinase inhibition assay (Lance Ultra TR-FRET), wildtype. The gist of the method: as §1
Where [6] appears, read: IC50 Del19/T790M/C797S (nM), 100 μM ATP.
Where [7] appears, read: Km ATP, read-out: IC50 Del19/T790M/C797S (nM) Km ATP.
[8] abbreviates: IC50 L858R/T790M/C797S (nM), 100 μM ATP.
Where [9] appears, read: Km ATP, read-out: IC50 L858R/T790M/C797S (nM) Km ATP.
Setting [10] is: IC50 Del19/C797S (nM), 100 μM ATP.
Where [11] appears, read: Km ATP, read-out: IC50 Del19/C797S (nM) Km ATP.
Where [12] appears, read: IC50 L858R/C797S (nM), 100 μM ATP.
[13] abbreviates: Km ATP, read-out: IC50 L858R/C797S (nM) Km ATP.
The mark [14] stands for this setting: Km ATP, read-out: IC50 WT (nM) Km ATP.
[15] abbreviates: Km ATP, read-out: IC50 Del19/T790M/C797S (nM), Km ATP.
[16] abbreviates: Km ATP, read-out: IC50 L858R/T790M/C797S (nM), Km ATP.
Setting [17] is: Km ATP, read-out: IC50 Del19/C797S (nM), Km ATP.
Where [18] appears, read: Km ATP, read-out: IC50 L858R/C797S (nM), Km ATP.
The mark [19] stands for this setting: Km ATP, read-out: IC50 WT (nM), Km ATP.
The mark [20] stands for this setting: ATP at Km, read-out: IC50 Del19/T790M/C797S (nM), Km ATP.
Where [21] appears, read: ATP at Km, read-out: IC50 L858R/T790M/C797S (nM), Km ATP.
[22] abbreviates: ATP at Km, read-out: IC50 Del19/C797S (nM), Km ATP.
Setting [23] is: ATP at Km, read-out: IC50 L858R/C797S (nM), Km ATP.
The mark [24] stands for this setting: ATP at Km, read-out: IC50 WT (nM), Km ATP.

Read-outs that look alike come from different tables or passages of the source.

EGFR L858R/T790M/C797S, sequence (P00533 25-1210 T790M/C797S/L858R): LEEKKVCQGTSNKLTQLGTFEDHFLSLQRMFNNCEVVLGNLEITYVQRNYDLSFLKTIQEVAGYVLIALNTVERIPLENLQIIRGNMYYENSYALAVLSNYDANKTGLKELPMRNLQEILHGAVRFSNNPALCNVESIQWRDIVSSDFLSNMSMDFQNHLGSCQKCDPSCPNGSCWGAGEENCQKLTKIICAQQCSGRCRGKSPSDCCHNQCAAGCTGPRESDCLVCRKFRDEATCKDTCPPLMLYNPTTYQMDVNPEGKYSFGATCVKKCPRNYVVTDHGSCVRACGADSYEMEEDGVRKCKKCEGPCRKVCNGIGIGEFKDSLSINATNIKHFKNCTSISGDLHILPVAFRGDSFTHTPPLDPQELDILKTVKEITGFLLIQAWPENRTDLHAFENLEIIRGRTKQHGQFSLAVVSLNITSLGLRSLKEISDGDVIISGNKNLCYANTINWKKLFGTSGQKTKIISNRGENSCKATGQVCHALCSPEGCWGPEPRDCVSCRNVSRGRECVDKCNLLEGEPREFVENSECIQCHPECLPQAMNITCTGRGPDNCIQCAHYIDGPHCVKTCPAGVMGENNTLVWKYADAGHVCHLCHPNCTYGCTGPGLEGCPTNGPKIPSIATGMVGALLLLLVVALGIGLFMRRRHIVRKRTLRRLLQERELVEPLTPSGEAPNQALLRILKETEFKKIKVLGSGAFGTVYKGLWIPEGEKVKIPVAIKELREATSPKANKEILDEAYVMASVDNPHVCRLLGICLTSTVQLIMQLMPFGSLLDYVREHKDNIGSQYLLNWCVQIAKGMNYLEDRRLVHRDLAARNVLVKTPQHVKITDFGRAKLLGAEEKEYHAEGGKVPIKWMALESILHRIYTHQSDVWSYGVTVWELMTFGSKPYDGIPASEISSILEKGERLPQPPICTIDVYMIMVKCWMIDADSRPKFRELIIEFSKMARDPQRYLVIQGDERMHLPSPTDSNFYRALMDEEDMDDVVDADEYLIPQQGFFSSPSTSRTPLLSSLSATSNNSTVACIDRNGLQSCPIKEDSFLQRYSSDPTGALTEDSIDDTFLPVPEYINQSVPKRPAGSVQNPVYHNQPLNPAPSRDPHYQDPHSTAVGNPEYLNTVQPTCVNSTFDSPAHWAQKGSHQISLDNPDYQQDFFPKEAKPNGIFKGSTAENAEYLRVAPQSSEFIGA
EGFR L858R/C797S, sequence (P00533 25-1210 C797S/L858R): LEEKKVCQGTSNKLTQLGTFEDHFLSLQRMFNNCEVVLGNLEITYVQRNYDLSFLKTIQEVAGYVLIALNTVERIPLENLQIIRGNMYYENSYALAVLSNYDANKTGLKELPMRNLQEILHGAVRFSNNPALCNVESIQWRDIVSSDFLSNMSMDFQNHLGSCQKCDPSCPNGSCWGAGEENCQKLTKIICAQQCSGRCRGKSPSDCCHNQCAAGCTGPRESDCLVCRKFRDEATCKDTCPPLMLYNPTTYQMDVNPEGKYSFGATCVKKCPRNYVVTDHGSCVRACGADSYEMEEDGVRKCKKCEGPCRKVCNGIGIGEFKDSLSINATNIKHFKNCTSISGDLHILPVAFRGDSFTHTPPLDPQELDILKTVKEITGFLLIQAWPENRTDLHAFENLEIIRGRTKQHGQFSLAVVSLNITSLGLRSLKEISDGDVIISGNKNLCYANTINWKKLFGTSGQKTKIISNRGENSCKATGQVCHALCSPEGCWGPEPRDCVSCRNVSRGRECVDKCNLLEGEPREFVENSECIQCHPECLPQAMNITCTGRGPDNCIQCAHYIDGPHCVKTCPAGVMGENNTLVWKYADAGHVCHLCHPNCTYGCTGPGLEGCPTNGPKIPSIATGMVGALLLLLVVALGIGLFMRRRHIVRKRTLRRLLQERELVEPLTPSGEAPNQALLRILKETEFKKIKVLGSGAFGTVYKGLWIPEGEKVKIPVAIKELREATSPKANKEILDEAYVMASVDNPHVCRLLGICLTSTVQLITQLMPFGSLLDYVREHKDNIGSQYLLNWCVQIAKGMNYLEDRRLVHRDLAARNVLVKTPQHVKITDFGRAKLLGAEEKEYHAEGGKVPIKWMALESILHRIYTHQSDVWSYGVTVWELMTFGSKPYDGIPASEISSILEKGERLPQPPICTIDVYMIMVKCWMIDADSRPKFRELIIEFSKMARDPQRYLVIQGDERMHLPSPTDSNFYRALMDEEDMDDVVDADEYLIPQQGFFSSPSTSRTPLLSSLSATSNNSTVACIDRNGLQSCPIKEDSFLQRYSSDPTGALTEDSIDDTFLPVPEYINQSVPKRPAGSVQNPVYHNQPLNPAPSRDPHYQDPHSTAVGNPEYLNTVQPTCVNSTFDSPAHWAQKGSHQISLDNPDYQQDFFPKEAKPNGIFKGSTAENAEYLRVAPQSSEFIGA
EGFR Del19/C797S, sequence (P00533 with tags, fused parts or gaps DEL746-750/C797S): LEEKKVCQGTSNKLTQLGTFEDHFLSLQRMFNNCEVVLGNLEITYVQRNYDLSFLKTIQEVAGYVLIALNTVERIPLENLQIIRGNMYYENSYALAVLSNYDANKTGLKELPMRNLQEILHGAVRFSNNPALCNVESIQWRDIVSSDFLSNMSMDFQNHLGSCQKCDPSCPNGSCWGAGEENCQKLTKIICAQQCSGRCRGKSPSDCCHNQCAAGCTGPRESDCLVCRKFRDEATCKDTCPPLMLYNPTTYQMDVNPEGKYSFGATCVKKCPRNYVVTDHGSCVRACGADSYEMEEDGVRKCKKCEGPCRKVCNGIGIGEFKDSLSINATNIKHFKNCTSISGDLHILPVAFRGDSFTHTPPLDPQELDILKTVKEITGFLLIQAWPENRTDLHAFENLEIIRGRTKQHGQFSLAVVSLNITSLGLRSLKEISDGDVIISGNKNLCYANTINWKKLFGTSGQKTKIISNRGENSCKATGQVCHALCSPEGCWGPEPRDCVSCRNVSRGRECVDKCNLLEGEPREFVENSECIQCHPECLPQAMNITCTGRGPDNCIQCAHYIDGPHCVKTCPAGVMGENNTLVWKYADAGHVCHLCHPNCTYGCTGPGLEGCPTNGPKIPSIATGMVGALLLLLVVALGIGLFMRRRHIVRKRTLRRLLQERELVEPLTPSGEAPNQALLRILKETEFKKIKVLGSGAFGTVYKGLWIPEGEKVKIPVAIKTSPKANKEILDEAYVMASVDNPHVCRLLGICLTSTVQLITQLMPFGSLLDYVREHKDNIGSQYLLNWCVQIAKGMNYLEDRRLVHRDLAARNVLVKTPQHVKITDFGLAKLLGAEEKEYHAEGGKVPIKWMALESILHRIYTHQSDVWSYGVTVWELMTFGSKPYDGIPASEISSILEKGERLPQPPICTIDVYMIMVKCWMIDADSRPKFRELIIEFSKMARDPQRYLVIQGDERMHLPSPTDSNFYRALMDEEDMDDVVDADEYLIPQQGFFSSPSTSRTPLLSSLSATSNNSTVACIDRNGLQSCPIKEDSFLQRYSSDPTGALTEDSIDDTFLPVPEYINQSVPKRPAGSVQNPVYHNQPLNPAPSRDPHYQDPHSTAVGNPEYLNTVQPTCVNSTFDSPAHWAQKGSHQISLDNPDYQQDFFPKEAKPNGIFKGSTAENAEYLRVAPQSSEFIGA
EGFR wildtype (WT), sequence (P00533 25-1210): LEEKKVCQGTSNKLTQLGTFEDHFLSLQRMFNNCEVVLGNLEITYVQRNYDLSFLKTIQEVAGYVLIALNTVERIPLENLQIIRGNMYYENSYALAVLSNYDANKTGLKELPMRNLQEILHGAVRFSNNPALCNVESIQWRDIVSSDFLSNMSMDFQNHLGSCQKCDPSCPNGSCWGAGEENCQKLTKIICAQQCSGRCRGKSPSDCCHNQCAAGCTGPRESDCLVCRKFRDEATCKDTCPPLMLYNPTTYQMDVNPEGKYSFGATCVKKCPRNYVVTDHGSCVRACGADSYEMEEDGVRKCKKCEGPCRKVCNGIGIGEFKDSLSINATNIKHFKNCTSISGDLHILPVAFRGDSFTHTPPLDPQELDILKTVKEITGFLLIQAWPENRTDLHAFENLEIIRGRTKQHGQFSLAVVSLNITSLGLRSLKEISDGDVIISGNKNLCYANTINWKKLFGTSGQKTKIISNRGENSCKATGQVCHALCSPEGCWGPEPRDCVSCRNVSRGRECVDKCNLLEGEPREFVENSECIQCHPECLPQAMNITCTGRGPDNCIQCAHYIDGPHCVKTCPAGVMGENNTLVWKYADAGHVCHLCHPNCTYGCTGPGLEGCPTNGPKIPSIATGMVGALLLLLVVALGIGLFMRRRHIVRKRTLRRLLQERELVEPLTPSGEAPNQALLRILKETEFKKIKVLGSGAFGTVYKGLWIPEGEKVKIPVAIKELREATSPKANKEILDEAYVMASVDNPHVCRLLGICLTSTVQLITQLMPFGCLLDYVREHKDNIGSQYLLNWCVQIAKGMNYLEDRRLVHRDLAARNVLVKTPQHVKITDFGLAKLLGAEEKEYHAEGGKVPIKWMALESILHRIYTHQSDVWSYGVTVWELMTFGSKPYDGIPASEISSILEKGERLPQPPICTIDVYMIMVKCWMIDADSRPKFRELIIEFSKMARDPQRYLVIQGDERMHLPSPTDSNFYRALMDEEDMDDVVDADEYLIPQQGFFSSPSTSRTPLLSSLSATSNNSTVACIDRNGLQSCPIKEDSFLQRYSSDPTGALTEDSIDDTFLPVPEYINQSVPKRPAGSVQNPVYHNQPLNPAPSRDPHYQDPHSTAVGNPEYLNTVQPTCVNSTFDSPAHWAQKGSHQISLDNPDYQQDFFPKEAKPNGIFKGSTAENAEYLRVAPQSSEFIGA

For the compound `O=S(=O)(C1CC1)n1cc(-c2nccc(Nc3cc(N[C@H]4CCC[C@H](O)C4)c(C#Cc4cnn(C(F)(F)F)c4)cn3)n2)cn1` [Example 103, (1 S,3S)-3-((2-((2-(1-(Cyclopropylsulfonyl)-1H-pyrazol-4-yl)pyrimidin-4-yl)amino)-5-((1-(trifluoromethyl)-1H-pyrazol-4-yl)ethynyl)pyridin-4-yl)amino)cyclohexan-1-ol], the IC50 in experiment [1] (setting [6]) was 3.5 nM; in experiment [1] (setting [7]), 2.7 nM; in experiment [2] (setting [8]), 8.5 nM; in experiment [2] (setting [9]), 2.8 nM; in experiment [3] (setting [10]), 87.3 nM; in experiment [3] (setting [11]), 66.8 nM. Besides, the IC50 in experiment [4] (setting [12]) was 1230 nM; in experiment [4] (setting [13]), 104 nM; in experiment [5] (IC50 WT (nM), 100 μM ATP) it was greater than 10000 nM; in experiment [5] (setting [14]), 1070 nM.
As to `CN(C)CCNC1CCN(c2cc(Nc3ccnc(-c4cnn(S(=O)(=O)C5CC5)c4)n3)ncc2C#Cc2cnn(C(F)(F)F)c2)CC1` [Example 143, N^1-(1-(2-((2-(1-(Cyclopropylsulfonyl)-1H-pyrazol-4-yl)pyrimidin-4-yl)amino)-5-((1-(trifluoromethyl)-1H-pyrazol-4-yl)ethynyl)pyridin-4-yl)piperidin-4-yl)-N^2,N^2-dimethylethane-1,2-diamine], the IC50 in experiment [1] (setting [6]) came out at 0.5 nM; in experiment [1] (setting [7]) it was 0.5 nM; in experiment [2] (setting [8]), 0.9 nM; in experiment [2] (setting [9]), 0.3 nM; in experiment [3] (setting [10]), 1.9 nM; in experiment [3] (setting [11]), 1.2 nM. Further, the IC50 is 83.5 nM in experiment [4] (setting [12]); 1.8 nM in experiment [4] (setting [13]); greater than 10000 nM in experiment [5] (IC50 WT (nM), 100 μM ATP); 14.3 nM in experiment [5] (setting [14]).
Take `CN1CCC(C#Cc2cnc(Nc3ccnc(-c4cnn(S(=O)(=O)C5CC5)c4)n3)cc2N2CCC3(CCCO3)CC2)C1` (stereo not drawn) [Example 372, 2-(1-(Cyclopropylsulfonyl)-1H-pyrazol-4-yl)-N-(5-((1-methylpyrrolidin-3-yl)ethynyl)-4-(1-oxa-8-azaspiro[4.5]decan-8-yl)pyridin-2-yl)pyrimidin-4-amine]: the IC50 was determined as 0.3 nM in experiment [1] (setting [6]); 0.2 nM in experiment [1] (setting [15]); 0.3 nM in experiment [2] (setting [8]); 0.1 nM in experiment [2] (setting [16]); 1.6 nM in experiment [3] (setting [10]); 0.8 nM in experiment [3] (setting [17]). In addition, the IC50 turned out to be 22.9 nM in experiment [4] (setting [12]); 1 nM in experiment [4] (setting [18]); 5110 nM in experiment [5] (IC50 WT (nM), 100 μM ATP); 5.5 nM in experiment [5] (setting [19]).
In the case of `CC1(CO)CCN(c2cc(Nc3ccnc(-c4cnn(S(=O)(=O)C5CC5)c4)n3)ncc2C#Cc2cnn(C3COC3)c2)CC1` [Example 245, (1-(2-((2-(1-(Cyclopropylsulfonyl)-1H-pyrazol-4-yl)pyrimidin-4-yl)amino)-5-((1-(oxetan-3-yl)-1H-pyrazol-4-yl)ethynyl)pyridin-4-yl)-4-methylpiperidin-4-yl)methanol], the IC50 in experiment [1] (setting [20]) amounted to 0.8 nM; in experiment [1] (setting [6]) it was 1.4 nM; in experiment [2] (setting [21]) it was 0.5 nM; in experiment [2] (setting [8]), 1.3 nM; in experiment [3] (setting [22]), 0.6 nM; in experiment [3] (setting [10]), 0.5 nM. Besides, the IC50 in experiment [4] (setting [23]) is 1.1 nM; in experiment [4] (setting [12]), 2.8 nM; in experiment [5] (setting [24]), 6.7 nM; in experiment [5] (IC50 WT (nM), 100 μM ATP) it was 474 nM.
As for `Cn1cc(C#Cc2cnc(Nc3ccnc(-c4cnn(S(=O)(=O)C5CC5)c4)n3)cc2N2CC3(CCNCC3)C2)cn1` [Example 155, 2-(1-(Cyclopropylsulfonyl)-1H-pyrazol-4-yl)-N-(5-((1-methyl-1H-pyrazol-4-yl)ethynyl)-4-(2,7-diazaspiro[3.5]nonan-2-yl)pyridin-2-yl)pyrimidin-4-amine], the IC50 in experiment [1] (setting [20]) came to 0.6 nM; in experiment [1] (setting [6]), 0.6 nM; in experiment [2] (setting [21]) it was 0.5 nM; in experiment [2] (setting [8]) it was 1.9 nM; in experiment [3] (setting [22]) it was 20.8 nM; in experiment [3] (setting [10]) it was 34.3 nM. Moreover, the IC50 in experiment [4] (setting [23]) is 19.4 nM; in experiment [4] (setting [12]) it was 309 nM; in experiment [5] (setting [24]), 90.6 nM; in experiment [5] (IC50 WT (nM), 100 μM ATP), greater than 10000 nM.
Take `O=S(=O)(C1CC1)n1cc(-c2nccc(Nc3cc(N4[C@@H]5CC[C@H]4C[C@H](CO)C5)c(C#Cc4cnn(C(F)(F)F)c4)cn3)n2)cn1` [Example 332, ((1R,3s,5S)-8-(2-((2-(1-(Cyclopropylsulfonyl)-1H-pyrazol-4-yl)pyrimidin-4-yl)amino)-5-((1-(trifluoromethyl)-1H-pyrazol-4-yl)ethynyl)pyridin-4-yl)-8-azabicyclo[3.2.1]octan-3-yl)methanol]: the IC50 in experiment [1] (setting [6]) stood at 23.9 nM; in experiment [1] (setting [15]) it was 18.9 nM; in experiment [2] (setting [8]), 21.6 nM; in experiment [2] (setting [16]), 7.8 nM; in experiment [3] (setting [10]), 1730 nM; in experiment [3] (setting [17]) it was 800 nM. Moreover, the IC50 was greater than 10000 nM in experiment [4] (setting [12]); 845 nM in experiment [4] (setting [18]); greater than 10000 nM in experiment [5] (IC50 WT (nM), 100 μM ATP); 801 nM in experiment [5] (setting [19]).
Consider `O=S(=O)(C1CC1)n1cc(-c2nccc(Nc3cc(N[C@H]4CCC[C@H](O)C4)c(C#Cc4cnn(CCF)c4)cn3)n2)cn1` [Example 44, (1S,3S)-3-((2-((2-(1-(Cyclopropylsulfonyl)-1H-pyrazol-4-yl)pyrimidin-4-yl)amino)-5-((1-(2-fluoroethyl)-1H-pyrazol-4-yl)ethynyl)pyridin-4-yl)amino)cyclohexan-1-ol], for which the IC50 in experiment [1] (setting [6]) was determined as 1.2 nM; in experiment [2] (setting [8]), 1.4 nM; in experiment [3] (setting [10]), 2.6 nM; in experiment [4] (setting [12]) it was 12.7 nM; in experiment [5] (IC50 WT (nM), 100 μM ATP), 2310 nM.
Turning to `CC1(CO)CCN(c2cc(Nc3ccnc(-c4cnn(S(=O)(=O)C5CC5)c4)n3)ncc2C#CC2CCN(S(C)(=O)=O)C2)CC1` (stereo not drawn) [Example 401, (1-(2-((2-(1-(Cyclopropylsulfonyl)-1H-pyrazol-4-yl)pyrimidin-4-yl)amino)-5-((1-(methylsulfonyl)pyrrolidin-3-yl)ethynyl)pyridin-4-yl)-4-methylpiperidin-4-yl)methanol], the IC50 in experiment [1] (setting [6]) is 0.4 nM; in experiment [1] (setting [15]), 0.7 nM; in experiment [2] (setting [8]), 0.5 nM; in experiment [2] (setting [16]) it was 0.4 nM; in experiment [3] (setting [10]), 0.6 nM; in experiment [3] (setting [17]), 0.3 nM. Besides, the IC50 in experiment [4] (setting [12]) was found to be 11.9 nM; in experiment [4] (setting [18]), 0.8 nM; in experiment [5] (IC50 WT (nM), 100 μM ATP) it was 3010 nM; in experiment [5] (setting [19]), 3.9 nM.
Regarding `O=S(=O)(C1CC1)n1cc(-c2nccc(Nc3cc(N4CCC(CO)C4)c(C#Cc4cnn(CCF)c4)cn3)n2)cn1` (stereo not drawn) [Example 34, (1-(2-((2-(1-(Cyclopropylsulfonyl)-1H-pyrazol-4-yl)pyrimidin-4-yl)amino)-5-((1-(2-fluoroethyl)-1H-pyrazol-4-yl)ethynyl)pyridin-4-yl)pyrrolidin-3-yl)methanol], the IC50 was 1.8 nM in experiment [1] (setting [6]); 2.1 nM in experiment [1] (setting [7]); 6.8 nM in experiment [2] (setting [8]); 11.5 nM in experiment [3] (setting [10]); 236 nM in experiment [4] (setting [12]); greater than 10000 nM in experiment [5] (IC50 WT (nM), 100 μM ATP). Also, the IC50 in experiment [5] (setting [14]) was 27.9 nM.
Regarding `O=S(=O)(C1CC1)n1cc(-c2nccc(Nc3cc(NC4CCC(O)CC4)c(C#CC4CCOC4C(F)(F)F)cn3)n2)cn1` [Example 420, (1s,4s)-4-((2-((2-(1-(Cyclopropylsulfonyl)-1H-pyrazol-4-yl)pyrimidin-4-yl)amino)-5-(((2R)-2-(trifluoromethyl)tetrahydrofuran-3-yl)ethynyl)pyridin-4-yl)amino)cyclohexan-1-ol], the IC50 in experiment [1] (setting [6]) amounted to 1.3 nM; in experiment [1] (setting [15]) it was 1.6 nM; in experiment [2] (setting [8]) it was 2.3 nM; in experiment [2] (setting [16]), 0.5 nM; in experiment [3] (setting [10]) it was 6.9 nM; in experiment [3] (setting [17]) it was 6.4 nM. The IC50 is 119 nM in experiment [4] (setting [12]); 12.6 nM in experiment [4] (setting [18]); greater than 10000 nM in experiment [5] (IC50 WT (nM), 100 μM ATP); 52.7 nM in experiment [5] (setting [19]).
Take `CC(=O)N1CCC(n2cc(C#Cc3cnc(Nc4ccnc(-c5cnn(S(=O)(=O)C6CC6)c5)n4)cc3N3CCCC(CO)C3)cn2)CC1` (stereo not drawn) [Example 115, 1-(4-(4-((6-((2-(1-(Cyclopropylsulfonyl)-1H-pyrazol-4-yl)pyrimidin-4-yl)amino)-4-(3-(hydroxymethyl)piperidin-1-yl)pyridin-3-yl)ethynyl)-1H-pyrazol-1-yl)piperidin-1-yl)ethan-1-one]: the IC50 came out at 1.2 nM in experiment [1] (setting [6]); 0.9 nM in experiment [1] (setting [7]); 2.3 nM in experiment [2] (setting [8]); 0.9 nM in experiment [2] (setting [9]); 8.1 nM in experiment [3] (setting [10]); 5.4 nM in experiment [3] (setting [11]). The IC50 in experiment [4] (setting [12]) is 15.6 nM; in experiment [4] (setting [13]), 2.9 nM; in experiment [5] (IC50 WT (nM), 100 μM ATP), greater than 10000 nM; in experiment [5] (setting [14]), 19.6 nM.
